The target of test [1] is GP IIb/IIIa (Homo sapiens, UniProt P05106+P08514). In words: In Vitro Solid Phase Purified GP IIb/IIIa Binding Assay (biotinylated fibrinogen). To be noted: biotinylated fibrinogen binding to immobilized purified GP IIb/IIIa, mean ± spread. As for the experimental part:
In Vitro Solid Phase Purified GP IIb/IIIa Binding Assay
The plate was covered and incubated overnight at 4° C. The GP IIb/IIIa solution was discarded and 150 μL of 5% BSA was added and incubated at RT for 1-3 h. The plate was washed extensively with modified Tyrodes buffer. Biotinylated fibrinogen (25 μL/well) at 2× final concentration was added to the wells that contain the test compounds (25 μL/well). The plate was covered and incubated at RT for 2-4 h. Twenty minutes prior to incubation completion, one drop of Reagent A (VectaStain ABC Horseradish Peroxidase kit, Vector Laboratories, Inc.) and one drop Reagent B were added with mixing to 5 mL modified Tyrodes buffer mix and let stand. The ligand solution was discarded and the plate washed (5×200 μL/well) with modified Tyrodes buffer. […] The Vecta Stain solution was discarded and the wells washed (5×200 μL/well) with modified Tyrodes buffer. Developing buffer (10 mL of 50 mM citrate/phosphate buffer @ pH 5.3, 6 mg o-phenylenediamine, 6 μL 30% H2O2; 50 μL/well) was added and incubated at RT for 3-5 min and then 2 N H2SO4 (50 μL/well) was added.

For test [2], the target named is T1, human purified αVβ5 (Homo sapiens, UniProt P06756+P18084).
T1 construct: purchased Chemicon International, Inc
T1 sequence (P06756 31-889 limits assumed): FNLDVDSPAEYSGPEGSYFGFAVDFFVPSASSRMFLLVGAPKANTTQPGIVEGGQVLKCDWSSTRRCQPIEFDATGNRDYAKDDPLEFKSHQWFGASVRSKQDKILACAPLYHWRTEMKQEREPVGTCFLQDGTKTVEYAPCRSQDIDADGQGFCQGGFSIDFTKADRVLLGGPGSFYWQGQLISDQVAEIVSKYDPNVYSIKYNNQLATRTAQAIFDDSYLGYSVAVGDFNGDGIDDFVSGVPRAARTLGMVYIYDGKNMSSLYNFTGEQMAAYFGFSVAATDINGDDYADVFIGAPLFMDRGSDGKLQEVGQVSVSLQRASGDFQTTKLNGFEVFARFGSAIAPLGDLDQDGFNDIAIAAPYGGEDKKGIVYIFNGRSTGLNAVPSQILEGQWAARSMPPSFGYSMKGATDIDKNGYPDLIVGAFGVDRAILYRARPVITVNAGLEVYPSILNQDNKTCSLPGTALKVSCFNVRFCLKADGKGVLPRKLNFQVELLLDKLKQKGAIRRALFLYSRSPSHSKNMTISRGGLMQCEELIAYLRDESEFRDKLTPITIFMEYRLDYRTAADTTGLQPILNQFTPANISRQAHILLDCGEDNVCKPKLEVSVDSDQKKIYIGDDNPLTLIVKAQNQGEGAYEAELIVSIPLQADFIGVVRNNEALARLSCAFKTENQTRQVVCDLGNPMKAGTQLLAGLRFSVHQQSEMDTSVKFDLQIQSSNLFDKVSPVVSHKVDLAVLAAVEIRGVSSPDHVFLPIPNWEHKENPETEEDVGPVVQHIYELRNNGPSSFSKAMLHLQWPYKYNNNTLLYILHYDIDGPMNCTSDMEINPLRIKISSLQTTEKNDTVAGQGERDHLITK
T1 sequence (P06756 891-1048 partner limits assumed): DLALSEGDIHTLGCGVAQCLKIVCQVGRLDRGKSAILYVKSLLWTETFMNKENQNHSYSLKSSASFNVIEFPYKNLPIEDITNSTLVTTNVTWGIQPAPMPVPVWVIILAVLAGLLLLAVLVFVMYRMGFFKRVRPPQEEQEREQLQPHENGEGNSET
T1 sequence (P18084 24-799): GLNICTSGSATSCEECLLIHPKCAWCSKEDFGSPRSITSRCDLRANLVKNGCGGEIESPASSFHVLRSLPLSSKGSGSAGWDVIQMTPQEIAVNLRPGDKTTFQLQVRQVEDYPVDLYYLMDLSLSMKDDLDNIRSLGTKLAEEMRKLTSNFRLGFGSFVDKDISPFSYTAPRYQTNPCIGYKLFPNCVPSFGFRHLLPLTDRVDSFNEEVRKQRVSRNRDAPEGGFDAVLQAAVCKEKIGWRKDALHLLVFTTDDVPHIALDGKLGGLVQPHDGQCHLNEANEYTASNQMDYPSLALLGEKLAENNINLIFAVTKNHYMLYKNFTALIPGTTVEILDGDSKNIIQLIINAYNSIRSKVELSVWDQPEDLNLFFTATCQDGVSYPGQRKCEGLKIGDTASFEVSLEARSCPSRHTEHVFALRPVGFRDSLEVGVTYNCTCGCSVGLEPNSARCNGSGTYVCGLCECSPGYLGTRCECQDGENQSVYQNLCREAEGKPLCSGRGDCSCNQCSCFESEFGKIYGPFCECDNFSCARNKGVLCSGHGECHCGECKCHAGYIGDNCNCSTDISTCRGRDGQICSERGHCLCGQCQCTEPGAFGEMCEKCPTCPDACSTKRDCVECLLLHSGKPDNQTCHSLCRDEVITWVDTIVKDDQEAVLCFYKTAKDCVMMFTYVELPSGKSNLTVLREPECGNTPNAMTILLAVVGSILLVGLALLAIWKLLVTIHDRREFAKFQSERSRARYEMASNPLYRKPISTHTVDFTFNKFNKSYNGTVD
In words: In Vitro Solid Phase Purified αcβ5 Binding Assay (vitronectin/αVβ5). To be noted: vitronectin binding to immobilized purified human αVβ5, mean ± spread. The procedure:
(§1) Human αvβ3 (Chemicon International Inc., Temecula, Calif.), at a concentration of 1 μg/ml dissolved in Tris buffer (20 mM Tris, 1 mM CaCl2, 1 mM MgCl2, 10 μM MnCl2, 150 mM NaCl), was immobilized on Immulon 96 well plates (Dynex Technologies, Chantilly, Va.) overnight at 4° C. Plates were washed and treated with blocking buffer (3% BSA in Tris buffer) for 2 h at 37° C. Plates were then rinsed 2 times with assay buffer comprised of Tris buffer. Synthesized compounds were added to wells in duplicate immediately prior to the addition of 2 nM vitronectin (Sigma, St. Louis, Mo.). Following a 3 hour incubation at 37° C., plates were washed 5 times in assay buffer. An anti-human vitronectin IgG rabbit polyclonal antibody (Calbiochem, San Diego, Calif.) was added (1:2000) and plates were incubated for 1 hour at room temperature. VectaStain ABC peroxidase kit reagents (Vector Laboratories, Burlingame, Calif.) employing a biotin labeled anti-rabbit IgG, were utilized for detection of bound antibody. Plates were read at 490 nm on a Molecular Devices (Sunnyvale, Calif.) microplate reader.
In Vitro Solid Phase Purified αcβ5 Binding Assay
All other aspects of the assay including buffers, reagents and incubation times remain unchanged.

Test [3] has as its target T2, Human αvβ3 (Homo sapiens, UniProt P05106+P06756).
T2 construct: purchased Chemicon International Inc., Temecula, Calif
In words: In Vitro Solid Phase Purified αvβ3 Binding Assay (vitronectin/αvβ3). To be noted: vitronectin binding to immobilized purified human αvβ3, mean ± spread. As for the experimental part:
In Vitro Solid Phase Purified αvβ3 Binding Assay
as §1

IC50 data for ten compounds are collected here from patent US7879881B2, “Piperidinyl compounds that selectively bind integrins” (Janssen Pharmaceutica NV, priority 2002, dated 2011).

Each structure is given as a SMILES string. Like-named read-outs stand apart in the source and are kept apart here.

T2 sequence (P06756 31-889 limits assumed): as the sequence (P06756 31-889 limits assumed) above
T2 sequence (P06756 891-1048 partner limits assumed): as the sequence (P06756 891-1048 partner limits assumed) above
T2 sequence (P05106 27-788): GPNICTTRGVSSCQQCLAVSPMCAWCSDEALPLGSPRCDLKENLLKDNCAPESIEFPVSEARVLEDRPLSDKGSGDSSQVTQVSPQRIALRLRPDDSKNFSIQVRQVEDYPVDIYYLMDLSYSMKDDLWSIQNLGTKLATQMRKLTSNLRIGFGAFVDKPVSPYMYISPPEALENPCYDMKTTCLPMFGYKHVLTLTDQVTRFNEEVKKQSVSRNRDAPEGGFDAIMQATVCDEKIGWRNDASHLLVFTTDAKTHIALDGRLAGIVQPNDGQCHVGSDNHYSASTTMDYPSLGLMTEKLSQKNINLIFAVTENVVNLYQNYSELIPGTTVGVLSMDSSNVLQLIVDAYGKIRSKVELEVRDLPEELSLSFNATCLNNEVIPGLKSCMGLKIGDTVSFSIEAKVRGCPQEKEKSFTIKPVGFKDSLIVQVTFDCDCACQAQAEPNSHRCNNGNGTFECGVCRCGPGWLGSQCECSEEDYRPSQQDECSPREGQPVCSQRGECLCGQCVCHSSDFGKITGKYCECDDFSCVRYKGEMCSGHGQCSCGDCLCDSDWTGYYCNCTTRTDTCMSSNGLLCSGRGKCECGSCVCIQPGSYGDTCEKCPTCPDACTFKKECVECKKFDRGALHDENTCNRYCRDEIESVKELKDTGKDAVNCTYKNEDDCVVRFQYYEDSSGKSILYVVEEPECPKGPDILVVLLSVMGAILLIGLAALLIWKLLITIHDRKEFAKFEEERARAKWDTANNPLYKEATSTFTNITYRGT
Sequence of GP IIb/IIIa (P08514 32-887 limits assumed): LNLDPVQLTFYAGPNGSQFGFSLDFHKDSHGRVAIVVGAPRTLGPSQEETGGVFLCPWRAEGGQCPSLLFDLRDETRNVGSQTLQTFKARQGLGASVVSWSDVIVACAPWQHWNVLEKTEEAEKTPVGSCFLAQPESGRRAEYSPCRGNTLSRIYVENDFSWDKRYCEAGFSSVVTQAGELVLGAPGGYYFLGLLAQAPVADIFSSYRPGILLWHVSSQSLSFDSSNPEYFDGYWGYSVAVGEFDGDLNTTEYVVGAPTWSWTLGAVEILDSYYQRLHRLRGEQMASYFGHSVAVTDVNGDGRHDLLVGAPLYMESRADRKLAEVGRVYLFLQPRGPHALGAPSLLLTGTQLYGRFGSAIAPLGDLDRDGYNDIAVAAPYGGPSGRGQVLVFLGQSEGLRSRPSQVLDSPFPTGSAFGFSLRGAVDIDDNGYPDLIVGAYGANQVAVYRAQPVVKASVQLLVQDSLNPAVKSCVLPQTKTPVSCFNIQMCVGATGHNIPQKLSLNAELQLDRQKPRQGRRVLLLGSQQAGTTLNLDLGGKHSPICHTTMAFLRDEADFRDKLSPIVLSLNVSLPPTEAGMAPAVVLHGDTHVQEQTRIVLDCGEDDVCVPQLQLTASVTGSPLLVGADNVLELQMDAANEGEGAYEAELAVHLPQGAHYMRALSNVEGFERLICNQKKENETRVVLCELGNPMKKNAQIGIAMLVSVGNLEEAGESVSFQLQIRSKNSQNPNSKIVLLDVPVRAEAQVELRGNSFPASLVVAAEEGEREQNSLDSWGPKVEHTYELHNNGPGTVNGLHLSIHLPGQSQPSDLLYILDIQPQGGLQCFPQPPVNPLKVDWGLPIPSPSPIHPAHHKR
Sequence of GP IIb/IIIa (P08514 891-1039 partner limits assumed): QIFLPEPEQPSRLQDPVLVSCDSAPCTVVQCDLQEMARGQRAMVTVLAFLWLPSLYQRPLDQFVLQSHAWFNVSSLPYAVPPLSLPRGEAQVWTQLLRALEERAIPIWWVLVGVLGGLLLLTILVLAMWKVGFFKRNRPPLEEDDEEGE
Sequence of GP IIb/IIIa (P05106 27-788): as the sequence (P05106 27-788) above

For the compound `O=C(O)CC(CC1CCN(C(=O)CCc2ccc3c(n2)NCCC3)CC1)c1ccc(Oc2ccccc2)cc1` (stereo not drawn) [Cpd 43, 1-[1-oxo-3-(5,6,7,8-tetrahydro-1,8-naphthyridin-2-yl)propyl]-β-(4-phenoxyphenyl)-4-piperidinebutanoic acid], the IC50 in test [1] (read-out: αIIbβ3 IC50) is 28.8 ± 15.8 µM; in test [2] (read-out: αvβ5 IC50), 0.222 ± 0.0885 µM; in test [3] (read-out: αvβ3IC50), 0.0079 ± 0.0007 µM.
For the compound `O=C(O)CC(C1CCN(C(=O)CCCc2ccc3c(n2)NCCC3)CC1)C1CNc2ccccc2C1` (single isomer, unassigned) [Cpd 5-4, 1,2,3,4-Tetrahydro-β-[1-[1-oxo-4-(5,6,7,8-tetrahydro-1,8-naphthyridin-2-yl)butyl]-4-piperidinyl]-3-quinolinepropanoic acid], the IC50 was determined as 9.82 µM in test [1] (read-out: αIIbβ3 IC50), 0.162 ± 0.0627 µM in test [2] (αvβ5 IC50 (uM)) and 0.0054 ± 0.0002 µM in test [3] (αvβ3IC50 (uM)).
Turning to `O=C(O)CC(c1cnc2ccccc2c1)C1CCN(C(=O)CCCc2ccc3c(n2)NCCC3)CC1` (stereo not drawn) [Cpd 4, β-[1-[1-Oxo-4-(5,6,7,8-tetrahydro-1,8-naphthyridin-2-yl)butyl]-4-piperidinyl]-3-quinolinepropanoic acid], the IC50 in test [1] (αIIbβ3 IC50 (uM)) worked out at 0.87 ± 0.19 µM; in test [2] (αvβ5 IC50 (uM)), 0.0355 ± 0.0089 µM; in test [3] (αvβ3IC50 (uM)) it was 0.0005 ± 0.0001 µM.
In the case of `O=C(O)CC(CC1CCN(C(=O)CCc2ccc3c(n2)NCCC3)CC1)c1cccc(F)c1` (single isomer, unassigned) [Cpd 30b, β-(3-fluorophenyl)-1-[1-oxo-3-(5,6,7,8-tetrahydro-1,8-naphthyridin-2-yl)propyl]-4-piperidinebutanoic acid], the figures for the IC50 in test [1] (read-out: αIIbβ3 IC50), in test [2] (read-out: αvβ5 IC50) and in test [3] (read-out: αvβ3IC50) were > 50 µM, 0.0482 ± 0.0028 µM and 0.0317 ± 0.0147 µM, respectively.
As for `CCNc1cccc(C(CC(=O)O)CC2CCN(C(=O)CCc3ccc4c(n3)NCCC4)CC2)c1` (racemic) [Cpd 78, 3-(3-Ethylamino-phenyl)-4-[1-(3-5,6,7,8-tetrahydro-[1,8]naphthyridin-2-yl-propionyl)-piperidin-4-yl]-butyric acid], the IC50 worked out at 24.7 µM in test [1] (read-out: αIIbβ3 IC50), 0.026 ± 0.003 µM in test [2] (read-out: αvβ5 IC50) and 0.0057 ± 0.0001 µM in test [3] (read-out: αvβ3IC50).
`O=C(O)CC(c1ccc2c(c1)OCO2)C1CCN(C(=O)CCCNc2ccccn2)CC1` (stereo not drawn) [Cpd 24, β-(1,3-benzodioxol-5-yl)-1-[1-oxo-4-(2-pyridinylamino)butyl]-4-piperidinepropanoic acid]: the IC50 came out at 19.3 µM in test [1] (read-out: αIIbβ3 IC50), 0.387 µM in test [2] (read-out: αvβ5 IC50) and 0.307 µM in test [3] (read-out: αvβ3IC50).
For `O=C(O)CC(CC1CCN(C(=O)CCc2ccc3c(n2)NCCC3)CC1)c1ccc2ccccc2c1` (single isomer, unassigned) [Cpd 56a, 3-Naphthalen-2-yl-4-[1-(3-5,6,7,8-tetrahydro-[1,8]naphthyridin-2-yl-propionyl)-piperidin-4-yl]-butyric acid], in that order: 14.7 µM, 0.0265 ± 0.0034 µM and 0.0005 ± 0.0002 µM.
For `COc1cccc(C(CC(=O)O)CC2CCN(C(=O)CCc3ccc4c(n3)NCCC4)CC2)c1` (racemic) [Cpd 59], in that order: 7.81 ± 4.67 µM, 0.0096 ± 0.0038 µM and 0.0026 ± 0.0014 µM.
For `O=C(O)CC(CCC1CCN(C(=O)CCCNc2ccccn2)CC1)c1cnc2ccccc2c1` (stereo not drawn) [Cpd 22, β-[2-[1-[1-oxo-4-(2-pyridinylamino)butyl]-4-piperidinyl]ethyl]-3-quinolinepropanoic acid], in that order: 0.43 ± 0.07 µM, 0.195 µM and 0.0046 ± 0.0008 µM.
With `O=C(O)CC(CC1CCN(C(=O)CCc2ccc3c(n2)NCCC3)CC1)c1cc(F)cc(F)c1` (stereo not drawn) [Cpd 37, β-(3,5-difluorophenyl)-1-[1-oxo-3-(5,6,7,8-tetrahydro-1,8-naphthyridin-2-yl)propyl]-4-piperidinebutanoic acid], the IC50 was > 50 µM in test [1] (read-out: αIIbβ3 IC50), 0.0897 ± 0.0116 µM in test [2] (read-out: αvβ5 IC50) and 0.0158 ± 0.0043 µM in test [3] (read-out: αvβ3IC50).
